The text below walks through data of publication PMC3997483, “Aminostyrylbenzofuran Directly Reduces Oligomeric Amyloid-β and Reverses Cognitive Deficits in Alzheimer Transgenic Mice” (PLoS ONE, 2014).

A short description of series [1]: Pharmacokinetics IV/PO in rats. As to conditions: for AUC(0-t): read-out: AUC0–24h. The series is classed as in vivo, SD rats. How it is done:
Pharmacokinetics profile of KMS88009 was obtained using ICR mice, SD rats, beagle dogs and cynomolgus monkeys. Animals were fasted overnight before KMS88009 administration. Mice were divided into 2 groups to receive KMS88009 as a single dose of 2.1 mg/kg intravenous (IV) bolus or 10 mg/kg orally (PO) by gavage. Additionally, KMS88009 was administered orally to estimate the BBB penetration in mice (10, 30 and 100 mg/kg). […] Dog received KMS88009 either as an IV bolus (1 mg/kg) via the great saphenous vein or by oral gavage (4 mg/kg). KMS88009 was administrated to monkeys as an IV bolus (1 mg/kg) via the femoral vein or by oral gavage (4 mg/kg). Vehicle for IV and PO administration was DMSO/tween-20/saline (3.3∶19.8∶[…]). […]. Brain samples were weighed and Daunce-homogenized in 10-fold volume of ice-chilled 4% bovine serum albumin (BSA) solution at room temperature. Plasma and brain homogenates were kept frozen at −70°C until analysis. The levels of KMS88009 were determined by the LC-MS/MS analysis. Pharmacokinetic parameters, time to the maximum concentration (Tmax), maximum concentration (Cmax), elimination half-life (T1/2), volume of distribution (Vd), clearance (Cl) and mean residual time (MRT), of KMS88009 were calculated based on plasma concentration-time data by a non-compartmental method using WinNonlin Version 5.2 (Pharsight, USA). Area under the curve from 0 to 24 hr (AUC0-24h) and area under the curve from 0 to infinity (AUCINF) were obtained by linear and log linear trapezoidal summations.

The nature of series [2]: Solubility studies. The series is classed as physicochemical. As for the experimental part: Solubility studies Solubility of KMS88009 in distilled water (DW), simulated gastric fluid (SGF, pH 1.2), simulated intestinal fluid (SIF, pH 6.8) and DMSO/tween-20/saline was determined. Excess amounts of KMS88009 were placed in screw-capped vials containing 2 mL of DW, SGF, SIF and DMSO/tween-20/saline. Suspensions were vortexed for 2 min and kept in a shaking water-bath at 37 °C. We transferred 250 μL of each sample to the filter insert of centrifuge tubes. After centrifugation at 16,000 rpm for 15 min, the filtrates of DW, SGF and SIF were analyzed by HPLC (Agilent 1200 series, USA). Values are expressed as the mean ± SD of 2 independent experiments.

In series [3] the test system is Aβ40 and Aβ42. Put plainly: Aβ40/Aβ42 sandwich ELISA of hippocampus, therapeutic trial. It is filed as in vivo, mouse. The following applies: 30 mg/kg/day, 3 months. How it is done:
Mice subjected to behavior tests were sacrificed and levels of Aβ in their brains were analyzed. After removing olfactory lobe and cerebellum of brain, hippocampus and cerebral cortex were separated. The separated regions were Dounce-homogenized first in 10-fold mass of a lysis buffer (RIPA, 150 mM NaCl, 1% NP-40, 0.5% deoxycholic acid, 0.1% SDS and 50 mM tris, pH 8.0) or tris buffer (50 mM tris and pH 8.0) containing protease inhibitor cocktail (Pierce, USA) for prophylactic or therapeutic treatment groups, respectively. The homogenates were then centrifuged at 16,000 g for 20 min at 4°C. The supernatant (soluble Aβ fraction) was collected and stored at −70°C until analyzed. The resulting pellet was solubilized in 20-fold mass of cold guanidine solution (5 M guanidine HCl, 50 mM tris HCl and pH 8.0) at room temperature for 4 hr followed by dilution with cold Dulbecco's phosphate buffered saline (PBS) with 5% BSA and 0.03% tween-20. The diluent was centrifuged at 16,000 g for 20 min at 4°C to obtain the insoluble Aβ fraction. The tissue concentrations of Aβ40 and Aβ42 in the soluble and insoluble fraction were measured using Aβ-detecting sandwich enzyme-linked immunosorbent assay (ELISA) kit (BioSource, USA). The levels of soluble Aβ oligomers were measured by a dot-blot immunoassay with an anti-oligomer antibody and an anti-Aβ antibody on soluble fraction of hippocampus homogenates. The homogenate sample (3 µL) was spotted onto nitrocellulose membrane (Whatman, UK). After blocking with 5% BSA in tris-buffered saline (TBS) for 1 hr at room temperature, the membrane was incubated with rabbit anti-oligomer polyclonal antibody (A11; 1∶1,000; Millipore, USA) overnight at 4°C, followed by incubation with HRP-secondary anti-rabbit antibody (1∶5,000; Millipore, USA) for 1 hr at room temperature. Blots were developed using ECL reagents (PerkinElmer, USA). […] The density of dots was analyzed with Multi Gauge program (Fuji Film, Japan) and the data was normalized to the average density of the TG control group. […]

Converted amounts (≈) assume the structure as drawn. Where two headings read alike, the source gives them in different places.

Consider `COc1ccc2cc(C=Cc3ccc(N(C)C)cc3)oc2c1` [KMS88009, 6-methoxy-2-(4-dimethylaminostyryl) benzofuran], for which the MRT last in series [1] (SD, plasma, rat IV 1.25 mg/kg) is 1.8 h; in series [1] (SD, plasma, rat PO 2.5 mg/kg), 4 h. For the same molecule, the Vd in series [1] (SD, plasma, rat IV 1.25 mg/kg) is 8 L/kg. In series [1] (SD, plasma, rat IV 1.25 mg/kg), this molecule showed a clearance of 13.3 mL/min/kg. Also, the half-life in series [1] (SD, plasma, rat IV 1.25 mg/kg) is 7.2 h; in series [1] (SD, plasma, rat PO 2.5 mg/kg) it was 4 h. In addition, the AUC(0-inf) came out at 1670 ng·h/mL in series [1] (SD, rat IV 1.25 mg/kg, plasma) and 929 ng·h/mL in series [1] (SD, rat PO 2.5 mg/kg, plasma). The AUC(0-t) came to 1640 ng·h/mL in series [1] (SD, rat IV 1.25 mg/kg, plasma) and 908 ng·h/mL in series [1] (SD, rat PO 2.5 mg/kg, plasma). In series [1] (rat PO […] vs IV 1.25 mg/kg), the BA was found to be 27.8%. Further, the solubility in series [2] (DMSO/tween-20/saline, read-out: Solubility) is 583 µg/mL (≈ 1990 µM); in series [2] (DW (distilled water), 37 °C), 0.000 mg/kg; in series [2] (SIF, pH 6.8, 37 °C), 0.000 mg/kg; in series [2] (simulated gastric fluid (SGF), SGF, pH 1.2, 37 °C, read-out: Solubility) it was 4 µg/mL (≈ 13.6 µM). Further, the “decrease of insoluble Aβ42 level vs TG littermates” value in series [3] was found to be 50.9%. Further, the “decrease of insoluble Aβ40 level vs TG mice” value in series [3] (not statistically significant) turned out to be 44.9%. The “decrease of soluble Aβ40 level vs TG mice” value in series [3] (not statistically significant) is 19.4%.

By MRT last is commonly meant a mean duration of stay, worked out from the concentration-time curve. For orientation: half-life means how long it takes for the measured level to halve. Low values mean fast loss, high ones slow loss. As usually defined, the AUC(0-inf) is the area under the concentration-time curve extrapolated to infinity. A higher AUC(0-inf) goes with high exposure.
